Where two headings read alike, the source gives them in different places.
Biological target: α-melanocyte-stimulating hormone receptor (hMC4R) (Homo sapiens (Human), UniProt P32245)
Assay: In vitro binding affinity assay using hMC4R (radioligand competition binding, [125I]-(Nle4, D-Phe7)-α-MSH)
Settings: geometric mean
Description: The binding affinity of test compounds at the α-melanocyte-stimulating hormone receptor (hMC4R) was assessed using a radioligand competition binding assay. Recombinant Chinese hamster ovaries (CHO) cells stably expressing hMC4R (PerkinElmer #ES-191-C) were used for competitive binding. hMC4R membranes were grown in Dulbecco's Modified Essential Medium and Ham's F-12 Medium (DMEM/F12), 10% heat inactivated fetal bovine serum (FBS), 0.4 mg/mL Geneticin and 2 mM L-glutamine. Cell membranes were bulked and frozen until the assay was performed.
Compounds were solubilized in 100% dimethyl sulfoxide (DMSO) to a concentration of 30 mM. A 10-point intermediate dilution series using half log dilutions was created in 100% DMSO with a top concentration of 0.03 mM. The serially diluted compounds were spotted as 1 μL/well, in 96-well Costar 3363 plates. The final compound range in the assay was 300 nM to 0.01 nM with a final DMSO concentration of 1%. Control wells, containing 1 μL of 2 mM ([…]) alpha-melanocyte stimulating hormone (α-MSH-Tocris #2584) was added to the non-specific binding wells and 1 μL 100% DMSO for the total binding control wells. […] The exact concentration of radioligand used for each experiment was determined by liquid scintillation counting and adjusted if necessary.
Frozen hMC4R cell membranes were thawed and Dounce homogenized. Homogenates were resuspended in assay buffer to a concentration of 2 μg per well. […] The plates were incubated for 2 hours at room temperature. Assay samples were then rapidly filtered through Unifilter-96 GF/B PEI coated filter plates using a filter plate harvester (PerkinElmer) and rinsed with ice-cold wash buffer [25 mM (4-(2-hydroxyethyl)-1-piperazineethanesulfonic acid (HEPES), 1 mM MgCl2, 2.5 mM CaCl2, and 500 mM NaCl]. Filter plates were dried overnight at room temperature. Plates were then bottom-sealed prior to the addition of 50 μL/well Ultima Gold XR scintillation fluid (PerkinElmer 6013111). Plates were then top-sealed, incubated for 60 minutes at room temperature and then the amount of radioactivity present was determined by liquid scintillation counting on a Microbeta Trilux (PerkinElmer #2450-0060).
The raw data (expressed as counts per minute) were analyzed using ActivityBase (IDBS Data Management Software). […] Equilibrium dissociation constant for inhibitor of ligand and receptor interaction (Ki) values were then calculated from the IC50 values using the Cheng-Prusoff equation: Ki=IC50/(1+([L]/Kd)), where [L] is the concentration of the radioligand used in the experiment and Kd is the affinity of the radioligand (determined in separate saturation experiments).

[1] = read-out: Ki (nM) geometric mean

α-melanocyte-stimulating hormone receptor (hMC4R), sequence (P32245 whole entry): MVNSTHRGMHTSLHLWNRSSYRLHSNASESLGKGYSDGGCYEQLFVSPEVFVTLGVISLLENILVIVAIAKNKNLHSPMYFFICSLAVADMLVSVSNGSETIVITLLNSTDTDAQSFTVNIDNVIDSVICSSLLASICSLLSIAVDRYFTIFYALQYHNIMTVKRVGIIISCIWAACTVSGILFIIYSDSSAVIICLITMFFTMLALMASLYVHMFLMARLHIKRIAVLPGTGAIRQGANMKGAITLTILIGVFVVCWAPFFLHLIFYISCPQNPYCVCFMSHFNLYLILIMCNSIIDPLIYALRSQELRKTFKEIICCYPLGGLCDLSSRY

Ki (read-out: Ki (nM) geometric) [nM]	Ki [1] [nM]	Structure (SMILES)
8.2	–	COc1cc([C@@H](C)C(=O)N2CC[C@@]3(CCc4cc(-c5nc(C(C)C)ns5)c(C)nc4N3)C2)c(F)cn1 [Example 162, (2R)-2-(5-fluoro-2-methoxypyridin-4-yl)-1-{(2S)-7-methyl-6-[3-(propan-2-yl)-1,2,4-thiadiazol-5-yl]-3,4-dihydro-1H-spiro[1,8-naphthyridine-2,3′-pyrrolidin]-1′-yl}propan-1-one]
–	2	COc1cc([C@@H](C)C(=O)N2CC[C@@]3(CCc4cc(-c5cn(C(F)(F)F)c(C)n5)c(C)nc4N3)C2)c(F)cn1 [Example 27, (2R)-2-(5-fluoro-2-methoxypyridin-4-yl)-1-{(2S)-7-methyl-6-[2-methyl-1-(trifluoromethyl)-1H-imidazol-4-yl]-3,4-dihydro-1H-spiro[1,8-naphthyridine-2,3′-pyrrolidin]-1′-yl}propan-1-one]
47	–	COc1cc([C@@H](C)C(=O)N2CC[C@@]3(CCc4cc(-c5cccc(-c6nnc(C)o6)c5)c(C)nc4N3)C2)c(F)cn1 [Example 161, (2R)-2-(5-fluoro-2-methoxypyridin-4-yl)-1-{(2S)-7-methyl-6-[3-(5-methyl-1,3,4-oxadiazol-2-yl)phenyl]-3,4-dihydro-1H-spiro[1,8-naphthyridine-2,3′-pyrrolidin]-1′-yl}propan-1-one]
110	–	COc1cc([C@@H](C)C(=O)N2CC[C@@]3(CCc4cc(Cl)c(C)nc4N3)C2)c(F)cn1 (single isomer, unassigned) [Example 102]
45	–	COc1cc([C@@H](C)C(=O)N2CC[C@@]3(CCc4cc(-c5ccc(-c6noc(C)n6)cc5)c(C)nc4N3)C2)c(F)cn1 [Example 175, (2R)-2-(5-fluoro-2-methoxypyridin-4-yl)-1-{(2S)-7-methyl-6-[4-(5-methyl-1,2,4-oxadiazol-3-yl)phenyl]-3,4-dihydro-1H-spiro[1,8-naphthyridine-2,3′-pyrrolidin]-1′-yl}propan-1-one]
86	–	COc1cc([C@@H](C)C(=O)N2CC[C@@]3(CCc4cc(-c5nnc(N6CCCCC6)s5)c(C)nc4N3)C2)c(F)cn1 [Example 168, (2R)-2-(5-fluoro-2-methoxypyridin-4-yl)-1-{(2S)-7-methyl-6-[5-(piperidin-1-yl)-1,3,4-thiadiazol-2-yl]-3,4-dihydro-1H-spiro[1,8-naphthyridine-2,3′-pyrrolidin]-1′-yl}propan-1-one]
0.78	–	COc1cc([C@@H](C)C(=O)N2CC[C@@]3(CCc4cc(-c5nc(OC)n(C)n5)c(C)nc4N3)C2)c(F)cn1 (single isomer, unassigned) [Example 112]
2	–	COc1cc([C@@H](C)C(=O)N2CC[C@@]3(CCc4cc(-c5ncc(Cl)cn5)c(C)nc4N3)C2)c(F)cn1 [Example 144, (2R)-1-[(2S)-6-(5-chloropyrimidin-2-yl)-7-methyl-3,4-dihydro-1H-spiro[1,8-naphthyridine-2,3′-pyrrolidin]-1′-yl]-2-(5-fluoro-2-methoxypyridin-4-yl)propan-1-one]
23	–	COc1cc([C@@H](C)C(=O)N2CC[C@@]3(CCc4cc(-c5cnc(C)nc5)c(C)nc4N3)C2)c(F)cn1 [Example 151, (2R)-2-(5-fluoro-2-methoxypyridin-4-yl)-1-[(2S)-7-methyl-6-(2-methylpyrimidin-5-yl)-3,4-dihydro-1H-spiro[1,8-naphthyridine-2,3′-pyrrolidin]-1′-yl]propan-1-one]
26	–	COc1cc([C@@H](C)C(=O)N2CC[C@@]3(CCc4cc(-c5cc(C)ns5)c(C)nc4N3)C2)c(F)cn1 [Example 176, (2R)-2-(5-fluoro-2-methoxypyridin-4-yl)-1-[(2S)-7-methyl-6-(3-methyl-1,2-thiazol-5-yl)-3,4-dihydro-1H-spiro[1,8-naphthyridine-2,3′-pyrrolidin]-1′-yl]propan-1-one]
0.49	–	Cc1nc2c(cc1-c1nc(C(F)F)n(C)n1)CC[C@@]1(CCN(C(=O)Cc3ccc(F)c(F)c3)C1)N2 [Example 121, 1-{(2S)-6-[5-(difluoromethyl)-1-methyl-1H-1,2,4-triazol-3-yl]-7-methyl-3,4-dihydro-1H-spiro[1,8-naphthyridine-2,3′-pyrrolidin]-1′-yl}-2-(3,4-difluorophenyl)ethan-1-one]
1.3	–	COc1cc([C@@H](C)C(=O)N2CC[C@@]3(CCc4cc(-c5nc(C(F)F)n(C6CC6)n5)c(C)nc4N3)C2)c(F)cn1 [Example 189, (2R)-1-{(2S)-6-[1-cyclopropyl-5-(difluoromethyl)-1H-1,2,4-triazol-3-yl]-7-methyl-3,4-dihydro-1H-spiro[1,8-naphthyridine-2,3′-pyrrolidin]-1′-yl}-2-(5-fluoro-2-methoxypyridin-4-yl)propan-1-one]
–	2.2	COc1cc([C@@H](C)C(=O)N2CC[C@@]3(CCc4cc(-c5ncc(C(F)F)cn5)c(C)nc4N3)C2)c(F)cn1 [Example 21, (2R)-1-{(2S)-6-[5-(difluoromethyl)pyrimidin-2-yl]-7-methyl-3,4-dihydro-1H-spiro[1,8-naphthyridine-2,3′-pyrrolidin]-1′-yl}-2-(5-fluoro-2-methoxypyridin-4-yl)propan-1-one]
–	2.5	COc1cnc(-c2cc3c(nc2C)N[C@@]2(CC3)CCN(C(=O)[C@H](C)c3cc(OC)ncc3F)C2)nc1 [Example 67, (2R)-2-(5-fluoro-2-methoxypyridin-4-yl)-1-[(2S)-6-(5-methoxypyrimidin-2-yl)-7-methyl-3,4-dihydro-1H-spiro[1,8-naphthyridine-2,3′-pyrrolidin]-1′-yl]propan-1-one]
0.27	–	COc1cc(C(C)C(=O)N2CC[C@@]3(CCc4cc(-c5ncccn5)c(C)nc4N3)C2)cc(OC(F)F)n1 (single isomer, unassigned) [Example 192]
–	5.1	COc1cc([C@@H](C)C(=O)N2CC[C@@]3(CCc4cc(-c5nc(C(F)(F)F)ccc5F)c(C)nc4N3)C2)c(F)cn1 [Example 69, (2R)-2-(5-fluoro-2-methoxypyridin-4-yl)-1-{(2S)-6-[3-fluoro-6-(trifluoromethyl)pyridin-2-yl]-7-methyl-3,4-dihydro-1H-spiro[1,8-naphthyridine-2,3′-pyrrolidin]-1′-yl}propan-1-one]
2.3	–	Cc1nc2c(cc1-c1ncccn1)CC[C@@]1(CCN(C(=O)C(C)c3ccc(F)cc3F)C1)N2 (single isomer, unassigned) [Example 190]
–	1.7	Cc1nc2c(cc1-c1cnn(C)c1)CC[C@@]1(CCN(C(=O)Cc3ccc(F)cc3)C1)N2 (stereo in doubt) [Example 89, 2-(4-fluorophenyl)-1-[7-methyl-6-(1-methyl-1H-pyrazol-4-yl)-3,4-dihydro-1H-spiro[1,8-naphthyridine-2,3′-pyrrolidin]-1′-yl]ethan-1-one]
18	–	COc1cc([C@@H](C)C(=O)N2CC[C@@]3(CCc4cc(-c5ccc(OC(F)F)nc5)c(C)nc4N3)C2)c(F)cn1 [Example 159, (2R)-1-{(2S)-6-[6-(difluoromethoxy)pyridin-3-yl]-7-methyl-3,4-dihydro-1H-spiro[1,8-naphthyridine-2,3′-pyrrolidin]-1′-yl}-2-(5-fluoro-2-methoxypyridin-4-yl)propan-1-one]
15	–	COc1cc([C@@H](C)C(=O)N2CC[C@@]3(CCc4cc(-c5nc(C(C)(C)C)cs5)c(C)nc4N3)C2)c(F)cn1 [Example 157, (2R)-1-[(2S)-6-(4-tert-butyl-1,3-thiazol-2-yl)-7-methyl-3,4-dihydro-1H-spiro[1,8-naphthyridine-2,3′-pyrrolidin]-1′-yl]-2-(5-fluoro-2-methoxypyridin-4-yl)propan-1-one]
